The results in this text go back to patent publication US7223759B2, “Antibacterial 3,5-diaminopiperidine-substituted aromatic and heteroaromatic compounds” (Anadys Pharmaceuticals, Inc., priority 2003, dated 2007).

The first experiment concerns Escherichia coli (ATCC25922) or Staphylococcus aureus (ATCC25923). In words: Antibacterial MIC, microdilution method in Mueller-Hinton medium. The format is cell-based. The note with it: Escherichia coli, 18 h, read-out: Potency (MIC). On the procedure:
The antibacterial activity of the Formula I compounds was evaluated against standard bacterial strains by determining the minimal inhibitory concentration (MIC) to block growth. Each drug was assayed by the microdilution method in Mueller-Hinton medium, as recommended by the National Committee for Clinical Laboratory Standards. Approved Standard M7-A5: Methods for Dilution Antimicrobial Susceptibility Tests for Bacteria That Grow Aerobically 5th Ed. (National Committee for Clinical Laboratory Standards, Wayne, Pa., 2000). The tested bacterial strains included Escherichia coli (American Type Collection ATCC25922), Staphylococcus aureus (ATCC25923), and Pseudomonas aeruginosa (ATCC27853). Two-fold serial dilutions of each compound ranging from 64 to 0.5 μg/ml were tested in duplicate. The MIC was determined as the lowest concentration of each compound that prevented bacterial growth after 18 hours of incubation at 35° C. […] The mass of each compound in the Table was confirmed by LC-MS.
For orientation: In broth dilution the organism is exposed to a series of concentrations in liquid medium.
One may read the MIC as the lowest concentration that inhibits growth of the organism. Consider `N[C@@H]1C[C@H](N)CN(c2nc(Nc3ccc4c(c3)-c3ccccc3C4=O)nc(N3C[C@@H](N)[C@@H](N)C3)n2)C1` [3-[4-((3R,5S)-3,5-Diamino-piperidin-1-yl)-6-((3R,4S)-3,4-diamino-pyrrolidin-1-yl)-[1,3,5]triazin-2-ylamino]-fluoren-9-one], for which the MIC was below 64 µg/mL.

Turning to `N[C@@H]1C[C@H](N)CN(c2nc(Nc3ccc4c(c3)-c3ccccc3C4=O)nc(N3C[C@@H](O)[C@@H](O)C3)n2)C1` [3-[4-((3S,5R)-3,5-Diamino-piperidin-1-yl)-6-((3R,4S)-3,4-dihydroxy-pyrrolidin-1-yl)-[1,3,5]triazin-2-ylamino}-fluoren-9-one], the MIC is above 64 µg/mL.

For `N[C@@H]1C[C@H](N)CN(c2nc(Nc3ccc4c(c3)-c3ccccc3C4=O)nc(N3CCC[C@@H](O)C3)n2)C1` [3-[4-((3S,5R)-3,5-Diamino-piperidin-1-yl)-6-((R)-3-hydroxy-piperidin-1-yl)-[1,3,5]triazin-2-ylamino]-fluoren-9-one], the minimal inhibitory concentration (MIC) is below 64 µg/mL.

On to `N[C@@H]1C[C@H](N)CN(c2nc(Nc3ccc4c(c3)-c3ccccc3C4=O)nc(N3C[C@@H](N)C[C@@H](O)C3)n2)C1` [3-[4-((3S,5R)-3-Amino-5-hydroxy-piperidin-1-yl)-6-((3S,5R)-3,5-diamino-piperidin-1-yl)-[1,3,5]triazin-2-ylamino]-fluoren-9-one], for which the MIC was below 16 µg/mL.

As for `NCCN(CCN)c1nc(Nc2ccc3c(c2)-c2ccccc2C3=O)nc(N2C[C@H](N)C[C@H](N)C2)n1` [3-[4-[Bis(2-amino-ethyl)-amino]-6-((3R,5S)-3,5-diamino-piperidin-1-yl)-[1,3,5]triazin-2-ylamino]-fluoren-9-one], the MIC is above 64 µg/mL.

`NC[C@H]1[C@@H](O)CCN1c1nc(Nc2ccc(C(=O)CC(=O)Nc3ccccc3Cl)cc2)nc(N2C[C@H](N)C[C@H](N)C2)n1` [3-{4-[4-((2S,3S)-2-Aminomethyl-3-hydroxy-pyrrolidin-1-yl)-6-((3R,5S)-3,5-diamino-piperidin-1-yl)-[1,3,5]triazin-2-ylamino]-phenyl}-N-(2-chloro-phenyl)-3-oxo-propionamide]: the MIC is below 64 µg/mL.

With `NC[C@@H]1C[C@@H](O)CN1c1nc(Nc2ccc(C(=O)CC(=O)Nc3ccc4c(c3)OC(F)(F)O4)cc2)nc(N2C[C@H](N)C[C@H](N)C2)n1` [3-{4-[4-((2S,4R)-2-Aminomethyl-4-hydroxy-pyrrolidin-1-yl)-6-((3R,5S)-3,5-diamino-piperidin-1-yl)-[1,3,5]triazin-2-ylamino]-phenyl}-N-(2,2-difluoro-benzo[1,3]dioxol-5-yl)-3-oxo-propionamide], the MIC is below 16 µg/mL.

Turning to `NC[C@@H]1C[C@@H](O)CN1c1nc(Nc2ccc(C(=O)CC(=O)Nc3ccccc3Cl)cc2)nc(N2C[C@H](N)C[C@H](N)C2)n1` [3-{4-[4-((2S,4R)-2-Aminomethyl-4-hydroxy-pyrrolidin-1-yl)-6-((3R,5S)-3,5-diamino-piperidin-1-yl)-[1,3,5]triazin-2-ylamino]-phenyl}-N-(2-chloro-phenyl)-3-oxo-propionamide], the MIC is below 64 µg/mL.

On to `NC[C@@H]1C[C@@H](O)CN1c1nc(Nc2ccc(C(=O)CC(=O)Nc3ccc(F)c(F)c3)cc2)nc(N2C[C@H](N)C[C@H](N)C2)n1` [3-{4-[4-((2S,4R)-2-Aminomethyl-4-hydroxy-pyrrolidin-1-yl)-6-((3R,5S)-3,5-diamino-piperidin-1-yl)-[1,3,5]triazin-2-ylamino]-phenyl}-N-(3,4-difluoro-phenyl)-3-oxo-propionamide], for which the MIC is below 64 µg/mL.

For the compound `NC[C@@H]1C[C@H](N)CN1c1nc(Nc2ccc(C(=O)CC(=O)Nc3ccc(SC(F)(F)F)cc3)cc2)nc(N2C[C@H](N)C[C@H](N)C2)n1` [3-{4-[4-((2S,4S)-4-Amino-2-aminomethyl-pyrrolidin-1-yl)-6-((3R,5S)-3,5-diamino-piperidin-1-yl)-[1,3,5]triazin-2-ylamino]-phenyl}-3-oxo-N-(4-trifluoromethylsulfanyl-phenyl)-propionamide], the MIC was below 16 µg/mL.

For the compound `NC[C@@H]1C[C@H](N)CN1c1nc(Nc2ccc(C(=O)CC(=O)Nc3ccccc3Cl)cc2)nc(N2C[C@H](N)C[C@H](N)C2)n1` [3-{4-[4-((2S,4S)-4-Amino-2-aminomethyl-pyrrolidin-1-yl)-6-((3R,5S)-3,5-diamino-piperidin-1-yl)-[1,3,5]triazine-2-ylamino]-phenyl}-N-(2-chloro-phenyl)-3-oxo-propionamide], the MIC was below 64 µg/mL.

For the compound `N[C@@H]1C[C@H](N)CN(c2nc(Nc3ccc(C(=O)CC(=O)Nc4ccc(SC(F)(F)F)cc4)cc3)nc(N3C[C@@H](N)C[C@H]3CO)n2)C1` [3-{4-[4-((2S,4S)-4-Amino-2-hydroxymethyl-pyrrolidin-1-yl)-6-((3R,5S)-3,5-diamino-piperidin-1-yl)-[1,3,5]triazin-2-ylamino]-phenyl}-3-oxo-N-(4-trifluoromethylsulfanyl-phenyl)-propionamide], the MIC was below 16 µg/mL.

Take `N[C@@H]1C[C@H](N)CN(c2nc(Nc3ccc(C(=O)CC(=O)Nc4ccc5c(c4)OC(F)(F)O5)cc3)nc(N3C[C@@H](N)C[C@H]3CO)n2)C1` [3-{4-[4-((2S,4S)-4-Amino-2-hydroxymethyl-pyrrolidin-1-yl)-6-((3R,5S)-3,5-diamino-piperidin-1-yl)-[1,3,5]triazin-2-ylamino]-phenyl}-N-(2,2-difluoro-benzo[1,3]dioxol-5-yl)-3-oxo-propionamide]: the MIC is below 16 µg/mL.

Consider `N[C@@H]1C[C@H](N)CN(c2nc(Nc3ccc(C(=O)CC(=O)Nc4ccccc4Cl)cc3)nc(N3C[C@@H](N)C[C@H]3CO)n2)C1` [3-{4-[4-((2S,4S)-4-Amino-2-hydroxymethyl-pyrrolidin-1-yl)-6-((3R,5S)-3,5-diamino-piperidin-1-yl)-[1,3,5]triazin-2-ylamino]-phenyl}-N-(2-chloro-phenyl)-3-oxo-propionamide], for which the MIC was below 64 µg/mL.

In the case of `N[C@@H]1C[C@H](N)CN(c2nc(Nc3ccc(C(=O)CC(=O)Nc4ccc(F)c(F)c4)cc3)nc(N3C[C@@H](N)C[C@H]3CO)n2)C1` [3-{4-[4-((2S,4S)-4-Amino-2-hydroxymethyl-pyrrolidin-1-yl)-6-((3R,5S)-3,5-diamino-piperidin-1-yl)-[1,3,5]triazin-2-ylamino]-phenyl}-N-(3,4-difluoro-phenyl)-3-oxo-propionamide], the MIC is below 64 µg/mL.

The same experiment, now with this note: MIC in E. coli or S. aureus; two-fold serial dilutions 64 to 0.5 μg/ml in duplicate; 18 hours of incubation at 35° C.
Regarding `NC[C@@H]1C[C@@H](O)CN1c1nc(Nc2ccc(C(=O)CC(=O)Nc3ccc(SC(F)(F)F)cc3)cc2)nc(N2C[C@H](N)C[C@H](N)C2)n1` [3-{4-[4-((2S,4RE)-2-Aminomethyl-4-hydroxy-pyrrolidin-1-yl)-6-((3R,5S)-3,5-diamino-piperidin-1-yl)-[1,3,5]triazin-2-ylamino]-phenyl}-3-oxo-N-(4-trifluoromethylsulfanyl-phenyl)-propionamide], the “Potency (MIC)” value was “++ (++ means MIC<16 μg/ml in E. coli or S. aureus)”.

Take `NC[C@@H]1C[C@H](N)CN1c1nc(Nc2ccc(C(=O)CC(=O)Nc3ccc(F)c(F)c3)cc2)nc(N2C[C@H](N)C[C@H](N)C2)n1` [3-{4-[4-((2S,4S)-4-Amino-2-aminomethyl-pyrrolidin-1-yl)-6-((3R,5S)-3,5-diamino-piperidin-1-yl)-[1,3,5]triazin-2-ylamino]-phenyl}-N-(3,4-difluoro-phenyl)-3-oxco-propionamide]: the “Potency (MIC)” value is on record as “+ (+ means MIC<64 μg/ml in E. coli or S. aureus)”.
